Assay: molar heat capacity at constant pressure
Conditions: 101.33 kPa

CCCCCCCC/C=C/CCCCCCCC(=O)OCC(COC(=O)CCCCCCC/C=C/CCCCCCCC)OC(=O)CCCCCCC/C=C/CCCCCCCC [trielaidin]
molar heat capacity at constant pressure [J/K/mol], Small (less than 1 g) adiabatic calorimetry
Conditions	Crystal	Metastable crystal
8.85 K	–	2.656
9.73 K	–	8.854
10.55 K	–	11.51
11.43 K	–	19.48
12.54 K	–	24.79
13.08 K	–	28.33
14.42 K	–	36.3
14.92 K	–	40.73
16.44 K	–	50.47
16.93 K	–	56.67
18.55 K	–	70.83
18.95 K	–	75.26
20 K	79.69	88.54
20.71 K	–	89.43
21.09 K	–	93.86
22.99 K	–	110.68
23.34 K	–	113.34
25 K	115.11	123.96
25.34 K	–	130.16
25.67 K	–	134.59
27.78 K	–	148.75
28.07 K	–	150.52
30 K	168.23	168.23
30.29 K	–	168.23
30.55 K	–	171.77
31.33 K	–	184.17
31.83 K	–	196.57
33.13 K	–	197.45
33.17 K	–	195.68
35 K	203.65	212.5
35.4 K	–	219.59
37.51 K	–	236.41
39.64 K	–	254.12
40 K	247.92	256.78
41.87 K	–	272.71
44.15 K	–	292.19
45 K	292.19	301.05
46.49 K	–	312.56
48.88 K	–	332.92
50 K	327.61	345.32
51.31 K	–	350.63
53.78 K	–	370.11
55 K	371.88	380.74
56.3 K	–	393.13
58.84 K	–	412.61
60 K	407.3	416.15
61.42 K	–	425.89
65 K	442.72	451.57
66.67 K	–	466.62
69.33 K	–	480.79
70 K	469.28	486.99
72.01 K	–	500.27
74.71 K	–	516.21
75 K	504.7	522.4
77.43 K	–	531.26
80 K	531.26	548.97
80.16 K	–	548.08
82.91 K	–	563.13
85 K	557.82	575.53
85.67 K	–	580.84
88.45 K	–	595.01
90 K	584.39	602.09
91.24 K	–	610.06
94.03 K	–	625.12
95 K	610.95	628.66
96.84 K	–	639.28
99.66 K	–	654.33
100 K	637.51	655.22
100.5 K	–	656.99
103.85 K	–	678.24
105 K	655.22	681.78
106.65 K	–	689.75
109.51 K	–	701.26
110 K	672.93	708.35
112.39 K	–	714.54
115.27 K	–	726.94
118.14 K	–	740.22
120 K	717.2	752.62
121.03 K	–	753.5
123.91 K	–	765.9
126.79 K	–	778.29
129.68 K	–	792.46
130 K	761.47	796.89
132.57 K	–	805.74
135.47 K	–	812.83
138.36 K	–	826.99
140 K	788.03	832.31
141.26 K	–	842.93
144.16 K	–	850.01
147.07 K	–	864.18
149.97 K	–	875.69
150 K	823.45	876.58
152.88 K	–	887.2
155.78 K	–	906.68

Crystal
Conditions	molar heat capacity at constant pressure [J/K/mol]
10.52 K	3.542
11.9 K	8.854
12.76 K	23.91
14.41 K	29.22
16.16 K	44.27
17.98 K	59.32
19.96 K	75.26
22.02 K	93.86
24.22 K	111.56
26.5 K	130.16
28.88 K	149.64
35.94 K	215.16
38.34 K	255
40.46 K	267.4
42.73 K	264.74
45.11 K	290.42
47.47 K	311.67
49.86 K	329.38
52.29 K	347.97
54.77 K	367.45
57.28 K	389.59
59.83 K	409.07
62.4 K	409.96
65.01 K	435.63
67.64 K	457.77
70.3 K	473.71
72.97 K	489.64
75.67 K	503.81
78.39 K	521.52
81.12 K	535.69
83.86 K	550.74
86.62 K	565.79
89.39 K	580.84
92.18 K	595.01
95.56 K	609.18
99.01 K	629.54
104.65 K	654.33
107.48 K	666.73
110.32 K	677.36
113.16 K	689.75
116 K	701.26
118.85 K	713.66
121.7 K	725.17
124.56 K	734.02
127.41 K	742.88
130.27 K	758.82
133.13 K	766.78
135.99 K	775.64
138.85 K	786.26
141.71 K	796
144.57 K	804.86
147.42 K	815.48
150.23 K	826.99
153.02 K	837.62
155.77 K	850.01
